The source made the active and inactive calls.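 The calls were made as follows: active = mean IC50 for reducing PEG3 promoter reporter signal at or below a set limit, with IC50 above the limit in both counter screens; inactive = the rest, including counter screen hits.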

Assay [1] addresses PEG-3 (UniProt Q6IN02). Kind of assay: inhibition of PEG-3 promoter-driven reporter – cell-based, HeLa, luciferase, CREF/GAPDH counter-screen panel, dose response (AID 624167). Particulars: HeLa PEG-Prom luciferase reporter, overnight, CREF/GAPDH counter-screens, mean of runs.
Assay [2] concerns PEG-3. The assay is described as above. Particulars: HeLa PEG-Prom luciferase reporter, overnight, CREF/GAPDH counter-screens.
Where [3] appears, read: run 1, dose range 1, individual replicate IC50 per panel.
[4] abbreviates: run 2, dose range 1, individual replicate IC50 per panel.

PEG-3 (UniProt Q6IN02), sequence (Q6IN02 whole entry, looked up): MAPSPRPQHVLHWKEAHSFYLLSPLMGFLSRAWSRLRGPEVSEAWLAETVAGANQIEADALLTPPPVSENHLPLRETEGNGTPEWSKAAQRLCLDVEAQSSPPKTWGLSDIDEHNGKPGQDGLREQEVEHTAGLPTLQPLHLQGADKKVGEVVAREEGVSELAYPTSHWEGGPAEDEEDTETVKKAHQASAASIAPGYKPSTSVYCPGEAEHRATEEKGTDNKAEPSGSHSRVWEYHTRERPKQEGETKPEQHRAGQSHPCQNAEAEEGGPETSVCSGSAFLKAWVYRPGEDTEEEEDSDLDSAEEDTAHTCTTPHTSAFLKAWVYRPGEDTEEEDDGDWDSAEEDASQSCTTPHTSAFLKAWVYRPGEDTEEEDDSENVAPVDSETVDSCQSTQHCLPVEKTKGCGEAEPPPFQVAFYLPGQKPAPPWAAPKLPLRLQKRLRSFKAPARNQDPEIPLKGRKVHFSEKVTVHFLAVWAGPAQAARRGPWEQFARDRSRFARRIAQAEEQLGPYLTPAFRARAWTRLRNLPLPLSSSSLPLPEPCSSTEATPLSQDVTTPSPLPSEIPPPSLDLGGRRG

Broadly, the IC50 is the concentration that inhibits the measured activity by half. Consider `CC(NS(=O)(=O)OCC(Cl)(Cl)Cl)c1ccc(C(C)(C)C)cc1` (centres undefined), for which the IC50 entry on PEG-3 [1] is “inactive”. In addition, the IC50 with PEG-3 [2] (setting [3]) was 38.1 µM; in the assay on PEG-3 [2] (setting [4]), over 100 µM.
In the same order, the values of `CCN1C/C(=C/c2ccc(N3CCOCC3)cc2)C(=O)/C(=C/c2ccc(N3CCOCC3)cc2)C1` are 14.5 µM, 15.9 µM and 13 µM.
In the same order, the values of `CCN1CCN(C(c2ccc(C(F)(F)F)cc2)c2ccc3cccnc3c2O)CC1` (centres undefined) are 19.1 µM, 21.7 µM and 16.5 µM.
In the same order, the values of `COc1ccc2nc3n(c(=O)c2c1)-c1cc2ccccc2cc1C(=O)NC3Cc1ccc(O)cc1` (centres undefined) are 17.5 µM, 21.2 µM and 13.9 µM.
For `Cc1ccc2sc(N(CCCN(C)C)C(=O)c3ccc(S(=O)(=O)N(C)Cc4ccccc4)cc3)nc2c1C`, the results for the IC50 at PEG-3 [1], in the assay on PEG-3 [2] (setting [3]) and in the assay with PEG-3 [2] (setting [4]) were 13.7 µM, 19 µM and 8.42 µM, respectively.
In the same order, the values of `CCc1cccc(CC)c1NC(=S)NCCc1c(C)[nH]c2ccc(C)cc12` are “inactive”, 29.6 µM and 13.8 µM.
Taken in the same sequence, the figures for `O=C1CSC(=S)N1Cc1cccnc1` were 17.9 µM, 28.3 µM and 7.51 µM.
Regarding `COc1cc(/C=C/[N+](=O)[O-])ccc1OC(=O)/C=C/c1ccc(F)cc1`, the values for the IC50 on PEG-3 [1], in the assay on PEG-3 [2] (setting [3]) and in the assay with PEG-3 [2] (setting [4]) were > 100 µM (inactive), over 100 µM and over 100 µM, respectively.
For the compound `Cc1nn(-c2ccccc2Cl)c(Cl)c1/C=N/Nc1nc2ccccc2s1`, the concentration for half-maximal inhibition (IC50) at PEG-3 [1], in the assay on PEG-3 [2] (setting [3]) and in the assay with PEG-3 [2] (setting [4]) was under 0.2 µM each time.
On to `CCc1ccc(NC(=O)CSc2nc3ccccc3c(=O)n2CCCN2CCC(C)CC2)cc1`, for which the IC50 is 17.3 µM at PEG-3 [1], 19.8 µM in the assay with PEG-3 [2] (setting [3]) and 14.8 µM in the assay with PEG-3 [2] (setting [4]).
In the same order, the values of `CN(C)C=NC(=O)c1[nH]c2ccc(Cl)cc2c1-c1ccccc1` are 18.9 µM, 18 µM and 19.9 µM.
In the case of `COc1cccc(Nc2nc(C(N)C3CCCCC3)cs2)n1` (centres undefined), the IC50 result on PEG-3 [1] is “inactive”. The values for the IC50 in the assay on PEG-3 [2] (setting [3]) and with PEG-3 [2] (setting [4]) were 21.8 µM and 47.6 µM, respectively.
`N=c1c2c(-c3ccccc3)c(-c3ccccc3)n(Cc3ccccc3)c2ncn1CCO`: the IC50 on PEG-3 [1] was 14.7 µM; in the assay with PEG-3 [2] (setting [3]), 18.8 µM; in the assay on PEG-3 [2] (setting [4]) it was 10.6 µM.
Regarding `Cc1ccc2nc(N(CCCN(C)C)C(=O)c3ccc4c(c3)CCCC4)sc2c1`, the IC50 at PEG-3 [1] is 19.8 µM; with PEG-3 [2] (setting [3]), 22 µM; in the assay on PEG-3 [2] (setting [4]) it was 17.6 µM.
For `Cc1ccc(C(=O)N/C(=C\c2ccc(-c3cccc([N+](=O)[O-])c3)o2)C(=O)NCCCN(C)C)cc1`, the IC50 was 17 µM at PEG-3 [1], 18.6 µM in the assay on PEG-3 [2] (setting [3]) and 15.3 µM in the assay on PEG-3 [2] (setting [4]).
For `CCOC(=O)/C(=C\c1ccccc1)C(=O)CCN1CCOCC1`, the IC50 on PEG-3 [1] was 13.3 µM; with PEG-3 [2] (setting [3]), 16.6 µM; with PEG-3 [2] (setting [4]) it was 9.98 µM.
Take `CC1CCCCN1C(=O)c1cccc(NC2=C(Cl)C(=O)N(Cc3ccccc3)C2=O)c1` (centres undefined): the IC50 entry at PEG-3 [1] was “inactive”. Also, the IC50 in the assay with PEG-3 [2] (setting [3]) was determined as 29.9 µM; with PEG-3 [2] (setting [4]), 51.8 µM.
In the same order, the values of `CC1(C)CC(NC(=O)c2cccc(S(=O)(=O)N(Cc3ccccc3)c3ccccc3)c2)CC(C)(C)N1` are 18.8 µM, 18.6 µM and 18.9 µM.
In the same order, the values of `Cc1c(C#N)c(N)nc2c3c(sc12)NC(=O)CC3c1ccc(Cl)cc1` (centres undefined) are 14.2 µM, 17.4 µM and 11 µM.
In the same order, the values of `NCCCNc1nc(N)c([N+](=O)[O-])c(NC2CCCCC2)n1` are 12.3 µM, 10.7 µM and 13.9 µM.
`COc1ccc(CC(N)c2csc(NC(=O)Nc3cc(OC)ccc3OC)n2)cc1` (centres undefined): the IC50 at PEG-3 [1] is 16 µM; in the assay on PEG-3 [2] (setting [3]), 16.5 µM; in the assay on PEG-3 [2] (setting [4]), 15.6 µM.
In the case of `CN(C)CCCN(C(=O)c1ccc(C(=O)c2ccccc2)cc1)c1nc2cc3c(cc2s1)OCO3`, the IC50 at PEG-3 [1] was 16 µM; with PEG-3 [2] (setting [3]), 18.8 µM; in the assay on PEG-3 [2] (setting [4]) it was 13.3 µM.
Taken in the same sequence, the figures for `Cc1ccc(NCCN(C)C)c2c(=O)c3cc(O)ccc3sc12` were 13.6 µM, 19.1 µM and 8.02 µM.
`Cc1ccc(C(=O)N(CCCN(C)C)c2nc3ccc(Cl)cc3s2)cc1C`: the IC50 was 18.4 µM on PEG-3 [1], 18.9 µM in the assay with PEG-3 [2] (setting [3]) and 18 µM with PEG-3 [2] (setting [4]).
In the same order, the values of `CCCN(CCC)CCCNC(=S)Nc1ccc2nc(N3CCCC3)cc(C)c2c1` are “inactive”, 27.5 µM and 19.1 µM.
In the same order, the values of `Cc1ccc2cccc(OCC(=O)Nc3cccc(S(=O)(=O)N4CCCC4)c3)c2n1` are “inactive”, 22.3 µM and 33.9 µM.
For the compound `CCN(CC)C(=O)Cn1cc(/C=C2\C(=O)NC(=O)N(c3ccccc3F)C2=O)c2ccccc21`, the IC50 on PEG-3 [1] is 14 µM; in the assay on PEG-3 [2] (setting [3]), 14.9 µM; in the assay with PEG-3 [2] (setting [4]), 13.1 µM.
In the case of `CN(C)CC(O)COc1ccc(C(C)(C)c2ccc(OCC(O)CN(C)C)cc2)cc1` (centres undefined), the IC50 entry on PEG-3 [1] is “inactive”. Further, the IC50 with PEG-3 [2] (setting [3]) is 26.8 µM; in the assay on PEG-3 [2] (setting [4]), over 100 µM.
In the same order, the values of `CCOC(=O)c1c(NC(C)=O)sc2c(OCC(O)CN(CC)CC)c(Br)ccc12` (centres undefined) are 13.9 µM, 20.7 µM and 7.1 µM.
In the same order, the values of `CCCN(CC(=O)Nc1ccccc1C)C(=O)CCl` are “inactive”, 56.1 µM and over 100 µM.
For `O=[N+]([O-])c1cc(F)c(N2CCCCCC2)cc1N1CCNCC1`, the IC50 is 15.7 µM on PEG-3 [1], 18.9 µM in the assay with PEG-3 [2] (setting [3]) and 12.5 µM in the assay with PEG-3 [2] (setting [4]).
In the same order, the values of `O=C1NC(=S)N(c2ccccc2F)C(=O)/C1=C\c1cccs1` are 16.7 µM, 19.1 µM and 14.2 µM.
Taken in the same sequence, the figures for `COc1cccc(CN(C)C(=O)c2cc(-c3cccs3)nc3ccccc23)c1` were “inactive”, 24.7 µM and 30.8 µM.
Taken in the same sequence, the figures for `CC(=O)Nc1cccc(-c2ccnc3c2CC(C)(C(=O)Nc2cccc(OC(F)(F)F)c2)O3)c1` (centres undefined) were 17.3 µM, 8.81 µM and 25.7 µM.
Turning to `CC(C)CN(C(=O)COC(=O)/C=C/c1ccc(Cl)c(Cl)c1)c1c(N)n(Cc2ccccc2)c(=O)[nH]c1=O`, the results for the IC50 on PEG-3 [1], with PEG-3 [2] (setting [3]) and in the assay with PEG-3 [2] (setting [4]) were > 100 µM (inactive), over 100 µM and over 100 µM, respectively.
With `CSc1ccc2c(c1)C(N1CCN(C)CC1)Cc1ccccc1S2` (centres undefined), the IC50 was 11.6 µM on PEG-3 [1], 16.9 µM in the assay on PEG-3 [2] (setting [3]) and 6.17 µM in the assay with PEG-3 [2] (setting [4]).
Turning to `CSc1ccc(CN(C)C(=O)C(Cc2ccccc2)NC(=O)c2ccccc2)cc1` (centres undefined), the IC50 entry at PEG-3 [1] was “inactive”. Besides, the IC50 with PEG-3 [2] (setting [3]) was 21.3 µM; in the assay with PEG-3 [2] (setting [4]) it was 24.4 µM.
Taken in the same sequence, the figures for `O=S(=O)(Nc1cccc2ncccc12)c1cccs1` were 13.2 µM, 17.5 µM and 8.93 µM.
Taken in the same sequence, the figures for `Fc1ccc([C@@H]2CCNC[C@H]2COc2ccc3c(c2)OCO3)cc1` were 19.5 µM, 20 µM and 19 µM.
Taken in the same sequence, the figures for `CC(=O)Nc1ccc(Nc2nc(C)c([N+](=O)[O-])c(Nc3ccccc3)n2)cc1` were “inactive”, 22.6 µM and over 100 µM.
Take `CC(C)N1CCc2c(sc(NC(=O)c3cc4cc([N+](=O)[O-])ccc4s3)c2C(N)=O)C1`: on PEG-3 [1], the IC50 result is “inactive”. Moreover, the IC50 was 22.5 µM in the assay with PEG-3 [2] (setting [3]) and 17.6 µM in the assay on PEG-3 [2] (setting [4]).
On to `CCCCCCCCCC[N+](C)(C)CC/C=C1/c2ccccc2Sc2ccc(Cl)cc21`, for which the IC50 is 11.7 µM at PEG-3 [1], 14.9 µM in the assay on PEG-3 [2] (setting [3]) and 8.43 µM with PEG-3 [2] (setting [4]).
`Cc1cc(C)c(CN2CCN(CCCn3cnc(C(=O)Nc4ccc(C)c(C)c4)n3)CC2)c(C)c1`: the figures for the IC50 on PEG-3 [1], in the assay on PEG-3 [2] (setting [3]) and in the assay on PEG-3 [2] (setting [4]) were 16.1 µM, 19 µM and 13.1 µM, respectively.
Taken in the same sequence, the figures for `O=C1CCC2S/C(=C/Nc3ccc(C(F)(F)F)cc3)C(=O)N12` (centres undefined) were “inactive”, 6.39 µM and 47.7 µM.
In the same order, the values of `O=Cc1cn(Cc2ccc(Br)cc2)c2ccccc12` are “inactive”, 43.8 µM and over 100 µM.
Taken in the same sequence, the figures for `CCCCCCCCCCCCCCC(O)C[N+](C)(CCO)CCO` (centres undefined) were 14.3 µM, 17.7 µM and 11 µM.
With `CCN1CCN(CCNC(=O)c2ccc(/C=C3\Sc4ccccc4N(Cc4ccccc4F)C3=O)cc2)CC1`, the IC50 is 14.9 µM at PEG-3 [1], 20.2 µM with PEG-3 [2] (setting [3]) and 9.63 µM in the assay on PEG-3 [2] (setting [4]).
Turning to `COc1cc(CNC(C)(C)CO)cc(Br)c1OCc1ccc(Cl)cc1`, the IC50 at PEG-3 [1] was 16.6 µM; with PEG-3 [2] (setting [3]), 20.6 µM; in the assay with PEG-3 [2] (setting [4]), 12.6 µM.
Taken in the same sequence, the figures for `N#Cc1ccc(Cn2cc(C=O)c3ccccc32)cc1` were “inactive”, 31.6 µM and 24.6 µM.
Taken in the same sequence, the figures for `O=C(Nc1ccc(-c2cn3ccsc3n2)cc1)c1ccc(F)c(S(=O)(=O)N2CCOCC2)c1` were > 100 µM (inactive), over 100 µM and over 100 µM.
In the same order, the values of `O=c1[nH]c(=O)n(C2OC(CO)C(O)C2O)cc1F` (centres undefined) are 14.3 µM, 25.6 µM and 3.07 µM.
In the case of `O=C1NC(=O)N(Cc2ccc(F)cc2)C(=O)/C1=C\C=C\c1ccco1`, the IC50 on PEG-3 [1] was 14.9 µM; in the assay with PEG-3 [2] (setting [3]) it was 16.8 µM; with PEG-3 [2] (setting [4]), 13 µM.
Take `CNCC(O)c1cc(OCc2ccccc2)c(OCc2ccccc2)cc1F` (centres undefined): the IC50 at PEG-3 [1] is 18.5 µM; in the assay on PEG-3 [2] (setting [3]), 20.8 µM; in the assay on PEG-3 [2] (setting [4]) it was 16.3 µM.

The values are drawn from PubChem BioAssay AID624167 (Sanford-Burnham Center for Chemical Genomics, 2012).
